Results published in patent US20210330611A1, “THERAPY FOR NEUROLOGICAL DISEASES/DISORDERS” (priority 2020, published 2021).
Where a name gives a salt, the structure may show the parent alone. Read-outs that look alike come from different tables or passages of the source.

Tests used:
[1] = tested on: fibrin-induced microglia activation; experiment: Image-based assay of fibrin-induced microglia activation (HTS and dose response); format: cell-based, rat; settings: primary microglia HTS, fibrin stimulation; for inhibition at 10 µM: Rattus norvegicus, Microglia, read-out: Fibrin % inhibition
[2] = tested on: LPS-induced microglia activation; experiment: Image-based assay of LPS-induced microglia activation (HTS and dose response); format: cell-based, rat; settings: for inhibition at 10 µM: Rattus norvegicus, Microglia, read-out: LPS % inhibition
[3] = tested on: fibrin- and LPS-induced microglia activation; experiment: cells; format: cell-based, rat
primary rat microglia [4] = tested on: primary rat microglia
primary rat microglia [5] = experiment: Cell toxicity (dead cells, size <150 μm2) in coated fibrin (cFib) assay; settings: primary microglia HTS;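 also: share of dead cells sized under 150 µm2 at 10 µM in fibrin-stimulated microglia HTS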
[6] = primary microglia HTS, LPS stimulation, compounds at 10 μM
[7] = quadrant by fibrin and LPS inhibition, HTS at 10 μM
[8] = fibrin assay, dead cells (size <150 μm2)
[9] = classification by fibrin and LPS inhibition, HTS at 10 μM
[10] = fibrin assay, dead cells (size <150 μm2), compounds at 10 μM
[11] = cell size >800 μm2 as marker of activation
[12] = classification by fibrin and LPS inhibition in HTS
[13] = fibrin stimulation, cell size <150 μm2 as marker of toxicity

Compound	inhibition at 10 µM ([1]; compounds at 10 μM) [%]	inhibition at 10 µM [2, 6] [%]	LPS % cell toxicity (primary rat microglia [4]; rat) [%]	Quadrant (FIG. 5b) [3, 9]	Fibrin % cell toxicity (primary rat microglia [5]; [10]) [%]	inhibition at 10 µM [1, 11] [%]	inhibition at 10 µM ([2]; 48 h) [%]	Quadrant (FIG. 5b) [3, 12]	Fibrin % cell toxicity (primary rat microglia [5]; [13]) [%]	other results
Nc1nc2c(ncn2COCCO)c(=O)[nH]1 [Aciclovir]	-20	3	1	–	–	–	–	–	–	Quadrant (FIG. 5b) [3, 7]: Q4; Fibrin % cell toxicity (primary rat microglia [5]; [8]): 1%
CC(C)Nc1cccnc1N1CCN(C(=O)c2cc3cc(NS(C)(=O)=O)ccc3[nH]2)CC1 [Delavirdine]	-11	9	1	Q4	1	–	–	–	–	–
CC(=O)N(O)CCCCCNC(=O)CCC(=O)N(O)CCCCCNC(=O)CCC(=O)N(O)CCCCCN [Deferoxamine]	2	32	0	Q4	1	–	–	–	–	–
CCC(=O)c1ccc(O)cc1 [Paroxypropione]	–	–	0	–	–	-11	17	Q4	1	–
CO[C@H]1/C=C/O[C@@]2(C)Oc3c(C)c(O)c4c(O)c(c5c(nc6cc(C)ccn65)c4c3C2=O)NC(=O)/C(C)=C\C=C\[C@H](C)[C@H](O)[C@@H](C)[C@@H](O)[C@@H](C)[C@H](OC(C)=O)[C@@H]1C [Rifaximin]	–	–	2	–	–	6	22	Q4	0	–
CN1CCC[C@@H]1Cc1c[nH]c2ccc(CCS(=O)(=O)c3ccccc3)cc12 [Eletriptan Hydrobromide]	-14	12	0	Q4	1	–	–	–	–	–
COC(=O)/C=C/C(=O)OC [Dimethyl Fumarate]	4	16	0	Q4	0	–	–	–	–	–
NC(=O)c1cnccn1 [Pyrazinamide]	–	–	0	–	–	-20	13	Q4	0	–
CN[C@@H]1[C@H](O)[C@H](NC)[C@H]2O[C@@]3(O)C(=O)C[C@@H](C)O[C@H]3O[C@@H]2[C@H]1O [Spectinomycin]	–	–	0	–	–	14	19	Q4	0	–
C[C@H]1c2cccc(O)c2C(=O)C2=C(O)[C@]3(O)C(=O)C(C(N)=O)=C(O)[C@@H](N(C)C)[C@@H]3[C@@H](O)[C@@H]21 [Doxycycline]	-19	18	0	Q4	0	–	–	–	–	–
CC(N)C(=O)OC(C)(C)Cc1ccc(Cl)cc1.Cl (stereo not shown) [Alaproclate Hydrochloride, Alaproclate]	–	–	–	–	–	–	–	–	–	Fibrin % inhibition ([1]; compounds at 10 μM): −7%; LPS % inhibition [2, 6]: 15%; Quadrant (FIG. 5b) [3, 7]: Q4; LPS % cell toxicity (primary rat microglia [4]): 0%; Fibrin % cell toxicity (primary rat microglia [5]; [8]): 1%
C[C@@H]1CC[C@H]2[C@@H](C)C(=O)O[C@@H]3O[C@@]4(C)CC[C@@H]1[C@]32OO4 [Artemisinin]	-25	12	0	–	–	–	–	–	–	Quadrant (FIG. 5b) [3, 7]: Q4; Fibrin % cell toxicity (primary rat microglia [5]; [8]): 0%
CCN(CC)C(=O)c1cccc(C)c1 [Deet, Diethyltoluamide]	–	–	–	Q4	0	–	–	–	–	Fibrin % inhibition ([1]; compounds at 10 μM): −38%; LPS % inhibition [2, 6]: 6%; LPS % cell toxicity (primary rat microglia [4]): 0%
O=C(NCCCN1CCOCC1)c1ccc(Cl)cc1 [Eprobemide]	-24	21	0	Q4	0	–	–	–	–	–
NNC(=O)c1ccncc1.Nc1ccc(C(=O)O)c(O)c1 [Pasiniazid]	–	–	–	–	–	–	–	Q4	1	Fibrin % inhibition [1, 11]: −61%; LPS % inhibition [2]: 17%; LPS % cell toxicity (primary rat microglia [4]): 0%
Cc1ncc(CSSCc2cnc(C)c(O)c2CO)c(CO)c1O [Pyritinol]	–	–	0	–	–	-15	4	Q4	1	–
CN(C(=O)C(Cl)Cl)c1ccc(OC(=O)c2ccco2)cc1 [Diloxanide Furoate]	-3	17	0	Q4	1	–	–	–	–	–
CCN1CCCC(OC(=O)C(c2ccccc2)c2ccccc2)C1 (stereo not shown) [Piperidolate Hydrochloride]	–	–	0	–	–	-21	–	Q4	0	inhibition at 10 µM ([2]; 48 h, primary microglia HTS, LPS stimulation, cell size >800 μm2 as marker of activation): 8%

Compound	inhibition at 10 µM ([1]; compounds at 10 μM) [%]	inhibition at 10 µM [2, 6] [%]	LPS % cell toxicity (primary rat microglia [4]; rat) [%]	Quadrant (FIG. 5b) [3, 9]	Fibrin % cell toxicity (primary rat microglia [5]; [10]) [%]	inhibition at 10 µM [1, 11] [%]	inhibition at 10 µM ([2]; 48 h) [%]	Quadrant (FIG. 5b) [3, 12]	Fibrin % cell toxicity (primary rat microglia [5]; [13]) [%]	other results
CN1CCN(C(c2ccccc2)c2ccccc2)CC1 [Cyclizine]	-23	34	1	Q4	0	–	–	–	–	–
O=C1CC[C@@]2(O)[C@H]3Cc4ccc(O)c5c4[C@@]2(CCN3CC2CC2)[C@H]1O5 [Naltrexone Hydrochloride]	107	79	2	–	–	–	–	–	–	Quadrant (FIG. 5b) [3, 7]: Q2; Fibrin % cell toxicity (primary rat microglia [5]; [8]): 4%
CN(C)CCOC(=O)C(c1ccccc1)C1(O)CCCC1 (stereo not shown) [Cyclopentolate]	-8	9	0	Q4	1	–	–	–	–	–
NC[C@@H]1O[C@H](O[C@H]2[C@@H](O)[C@H](O[C@@H]3[C@@H](O)[C@H](N)C[C@H](N)[C@H]3O[C@H]3O[C@H](CO)[C@@H](O)[C@H](O)[C@H]3N)O[C@@H]2CO)[C@H](N)[C@@H](O)[C@@H]1O [Paromomycin Sulfate]	–	–	0	–	–	9	14	Q4	1	–
CCN1CC(CCN2CCOCC2)C(c2ccccc2)(c2ccccc2)C1=O (stereo not shown) [Doxapram Hydrochloride]	-18	9	0	Q4	0	–	–	–	–	–
CNC(=C[N+](=O)[O-])NCCSCc1ccc(CN(C)C)o1 [Ranitidine]	–	–	0	–	–	35	15	Q4	1	–
CC(=O)Nc1ccc(OC(=O)c2ccccc2O)cc1 [Acetaminosalol]	-15	20	1	–	–	–	–	–	–	Quadrant (FIG. 5b) [3, 7]: Q4; Fibrin % cell toxicity (primary rat microglia [5]; [8]): 1%
CCCC(C(=O)OCCN(CC)CC)(c1ccccc1)c1ccccc1.Cl	–	–	–	–	–	–	–	Q4	0	Fibrin % inhibition [1, 11]: −10%; LPS % inhibition [2]: 5%; LPS % cell toxicity (primary rat microglia [4]): 0%
CC(=O)NC(Cc1ccccc1)C(=O)O (stereo not shown) [Afalanine]	0	10	0	–	–	–	–	–	–	Quadrant (FIG. 5b) [3, 7]: Q4; Fibrin % cell toxicity (primary rat microglia [5]; [8]): 1%
CCOP(=S)(OCC)Oc1cc(C)nc(C(C)C)n1 [Diazinon, Dimpylate]	–	–	–	Q4	1	–	–	–	–	Fibrin % inhibition ([1]; compounds at 10 μM): −7%; LPS % inhibition [2, 6]: −8%; LPS % cell toxicity (primary rat microglia [4]): 0%
O=C1[C@H](CC[C@H](O)c2ccc(F)cc2)[C@@H](c2ccc(O)cc2)N1c1ccc(F)cc1 [Ezetimibe]	41	27	0	Q4	1	–	–	–	–	–
COCCCOc1ccnc(C[S+]([O-])c2nc3ccccc3[nH]2)c1C (stereo not shown) [Rabeprazole]	–	–	0	–	–	-46	3	Q4	0	–
CS(=O)(=O)c1ccc(C2=C(c3ccccc3)C(=O)OC2)cc1 [Rofecoxib]	–	–	0	–	–	15	14	Q4	0	–
OCc1ccccc1O [Salicyl Alcohol]	–	–	0	–	–	-5	19	Q4	1	–
CCN(CC)C(C)CN1c2ccccc2Sc2ccccc21 (stereo not shown) [Ethopropazine]	31	30	0	Q4	1	–	–	–	–	–
CCCCC(=O)O[C@H]1CC[C@H]2[C@@H]3CCc4cc(O)ccc4[C@H]3CC[C@]12C [Estradiol Valerate]	-8	16	1	Q4	1	–	–	–	–	–
O=C(/C=C/C=C/c1ccc2c(c1)OCO2)N1CCCCC1 [Piperine]	–	–	0	–	–	-13	10	Q4	1	–
